These results are taken from patent US20240383905A1, “FGFR INHIBITORS AND METHODS OF USE THEREOF” (3H PHARMACEUTICALS CO., LTD., priority 2021, published 2024).

One series has as its system SNU16 cells. The series is described as follows: SNU16 Cancer Cell Line Proliferation Assay (CellTiter-Glo). The series is classed as cell-based. The conditions noted are these: Homo sapiens, SNU-16, 72 h. In a few lines:
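SNU16 cells at 5000/well exposed to 9-point 3-fold serial compound dilutions (DMSO control) for 72 h at 37 °C, 5% CO2. Viability read by luminescence; IC50 calculated from dose-response.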

The target of a further series is T1, FGFR3 (Homo sapiens, UniProt P22607).
T1 construct: purchased Carna 08-135
The series is described as follows: FGFR3 Biochemical Caliper Assay (KinEASE-TK kit). The conditions noted are these: ratio FGFR3/FGFR2 of the biochemical assay. The gist of the method:
(§1)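 KinEASE-TK HTRF readout: enzyme at 0.2 nM (FGFR1, FGFR3) preincubated 10 min at RT with 10-point 3-fold compound dilutions before TK-substrate/ATP start.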

A short description of series [1]: Pharmacokinetics in SD Rat. Particulars: male SD rat, plasma. The series is classed as in vivo, Sprague-Dawley (SD) rat. The protocol:
Animal studies were done as approved protocols by the Institutional Animal Care and Use Committee at INVIVO Biotech Co., Ltd.
Animal information: Sprague-Dawley (SD) rat, SPF, 6-8 weeks, Male, weight 200-250 g, purchased from Beijing Vital River Lab (Beijing, People's Republic of China).
Formulation: Prepare 1.5 mg/ml and 0.6 mg/ml compound solution in […](20% HPβCD) for PO and IV respectively, dosing immediately after preparation.
Administration: PO and IV;

The target of another series is T2, FGFR2 (Homo sapiens, UniProt P21802).
T2 construct: purchased Carna 08-134
The series is described as follows: FGFR2 Biochemical Caliper Assay (KinEASE-TK kit). Particulars: 0.07 nM FGFR2; compound incubated with protein 10 min, reaction 45 min at RT; read-out: FGFR2 Cliper IC50.

The target in a further series is T3, FGFR1 (Homo sapiens, UniProt P11362).
T3 construct: purchased Carna 08-133
The series is described as follows: FGFR1 Biochemical Caliper Assay (KinEASE-TK kit). Particulars: ratio FGFR1/FGFR2 of the biochemical assay. The gist of the method: as §1

Where [2] appears, read: Sprague-Dawley, PO 15 mg/kg (IV used for Clearance).
Setting [3] is: Sprague-Dawley, PO 15 mg/kg (IV used for Clearance), read-out: Cmax.
Setting [4] is: PO 15 mg/kg (IV used for Clearance).

Where two headings read alike, the source gives them in different places.

T1 sequence (P22607 23-806): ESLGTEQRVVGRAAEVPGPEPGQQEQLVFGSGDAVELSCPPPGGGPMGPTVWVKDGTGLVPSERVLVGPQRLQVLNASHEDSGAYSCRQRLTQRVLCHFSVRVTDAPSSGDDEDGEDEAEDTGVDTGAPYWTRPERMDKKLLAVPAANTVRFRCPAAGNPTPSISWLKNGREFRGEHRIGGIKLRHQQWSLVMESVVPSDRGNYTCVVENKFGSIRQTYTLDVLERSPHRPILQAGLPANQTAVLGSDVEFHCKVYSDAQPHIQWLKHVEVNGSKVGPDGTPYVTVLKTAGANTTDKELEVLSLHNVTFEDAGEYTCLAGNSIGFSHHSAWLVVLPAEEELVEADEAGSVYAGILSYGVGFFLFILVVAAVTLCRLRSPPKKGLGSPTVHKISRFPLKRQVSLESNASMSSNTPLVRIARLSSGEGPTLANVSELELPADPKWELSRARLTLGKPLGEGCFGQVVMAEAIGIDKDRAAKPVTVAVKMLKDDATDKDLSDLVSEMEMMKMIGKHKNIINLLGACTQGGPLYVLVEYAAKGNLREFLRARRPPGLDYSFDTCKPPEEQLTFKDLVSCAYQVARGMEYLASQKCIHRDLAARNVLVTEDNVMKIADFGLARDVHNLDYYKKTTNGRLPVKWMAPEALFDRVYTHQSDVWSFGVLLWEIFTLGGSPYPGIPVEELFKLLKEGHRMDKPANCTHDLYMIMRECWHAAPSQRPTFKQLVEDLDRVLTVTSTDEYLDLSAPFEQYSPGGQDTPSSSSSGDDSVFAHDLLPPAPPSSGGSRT
T2 sequence (P21802 22-821): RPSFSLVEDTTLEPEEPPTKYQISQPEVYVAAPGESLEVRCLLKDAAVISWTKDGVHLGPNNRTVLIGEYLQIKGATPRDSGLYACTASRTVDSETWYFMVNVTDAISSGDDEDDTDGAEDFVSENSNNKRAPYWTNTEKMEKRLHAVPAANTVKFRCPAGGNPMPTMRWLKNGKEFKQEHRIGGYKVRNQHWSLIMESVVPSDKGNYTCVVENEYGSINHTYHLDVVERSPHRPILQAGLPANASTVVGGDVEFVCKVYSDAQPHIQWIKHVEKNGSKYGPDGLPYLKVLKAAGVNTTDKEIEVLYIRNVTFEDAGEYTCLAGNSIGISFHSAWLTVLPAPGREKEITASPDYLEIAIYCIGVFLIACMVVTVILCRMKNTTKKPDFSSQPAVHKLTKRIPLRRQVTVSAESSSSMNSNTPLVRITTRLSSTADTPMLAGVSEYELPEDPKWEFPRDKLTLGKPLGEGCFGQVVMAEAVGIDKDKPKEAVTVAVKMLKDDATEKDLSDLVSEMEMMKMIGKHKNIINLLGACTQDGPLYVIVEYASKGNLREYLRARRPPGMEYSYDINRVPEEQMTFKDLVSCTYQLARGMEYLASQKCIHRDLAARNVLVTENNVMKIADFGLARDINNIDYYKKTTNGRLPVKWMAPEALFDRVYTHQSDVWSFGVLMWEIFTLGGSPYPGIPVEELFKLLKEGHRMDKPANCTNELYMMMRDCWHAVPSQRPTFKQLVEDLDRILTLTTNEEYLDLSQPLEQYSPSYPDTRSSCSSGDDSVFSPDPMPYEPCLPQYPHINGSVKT
T3 sequence (P11362 22-822): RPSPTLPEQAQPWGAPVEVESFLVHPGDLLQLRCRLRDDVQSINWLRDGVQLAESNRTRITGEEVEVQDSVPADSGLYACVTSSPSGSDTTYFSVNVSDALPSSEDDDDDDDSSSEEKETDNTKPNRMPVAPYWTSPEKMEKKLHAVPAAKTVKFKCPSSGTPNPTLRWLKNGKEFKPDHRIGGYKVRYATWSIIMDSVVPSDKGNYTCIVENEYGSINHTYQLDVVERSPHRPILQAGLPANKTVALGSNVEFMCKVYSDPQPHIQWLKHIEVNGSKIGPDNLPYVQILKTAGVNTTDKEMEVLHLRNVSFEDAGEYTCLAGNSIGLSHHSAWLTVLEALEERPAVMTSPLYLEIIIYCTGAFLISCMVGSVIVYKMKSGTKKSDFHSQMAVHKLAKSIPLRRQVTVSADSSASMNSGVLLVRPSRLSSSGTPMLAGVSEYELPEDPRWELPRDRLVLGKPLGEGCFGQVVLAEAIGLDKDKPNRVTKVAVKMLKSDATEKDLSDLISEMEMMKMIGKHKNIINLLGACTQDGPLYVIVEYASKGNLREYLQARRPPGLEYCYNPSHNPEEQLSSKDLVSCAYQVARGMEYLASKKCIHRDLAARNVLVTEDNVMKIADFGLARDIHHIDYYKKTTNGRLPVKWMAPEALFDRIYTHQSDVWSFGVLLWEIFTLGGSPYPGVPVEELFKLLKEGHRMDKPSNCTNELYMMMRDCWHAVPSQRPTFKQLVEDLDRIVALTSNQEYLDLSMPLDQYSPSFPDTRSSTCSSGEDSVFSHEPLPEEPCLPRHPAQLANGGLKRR

For orientation: IC50 means the midpoint of a concentration-inhibition curve. What is called clearance is the rate of elimination divided by the concentration. Low values mean a low capacity for elimination, high ones a high capacity for elimination. Broadly, the AUC(0-inf) is the area under the concentration-time curve extrapolated to infinity. A word on the half-life: it is the time in which the quantity being followed falls by half. Lower therefore signals fast loss. As a reminder, the Cmax is the peak of the concentration-time curve. In turn, `C=CC(=O)Nc1ccc(-c2c(-c3ccc(C(=O)NCC(F)(F)F)c(OC)c3)c3c(N)ncc(C#N)c3n2C)cc1` [Compound 28, 4-(2-(4-acrylamidophenyl)-4-amino-7-cyano-1-methyl-1H-pyrrolo[3,2-c]pyridin-3-yl)-2-methoxy-N-(2,2,2-trifluoroethyl)benzamide] registered an IC50 with SNU16 cells of at most 10 nM. Also, the “Selectivity FGFR3/FGFR2” value at FGFR3 is reported as “B (Selectivity of FGFR3/FGFR2 less than 100 but greater than or equal to 25)”. For the same compound, the clearance in series [1] (Sprague-Dawley, IV 3 mg/kg) stood at 19 mL/min/kg. Moreover, in series [1] (setting [2]), the AUC(0-inf) came out at 1240 ng·h/mL and the half-life is 58.8 min. In addition, in series [1] (setting [3]), the Cmax amounted to 509 ng/mL. Further, the IC50 on FGFR2 is below 5 nM. For the same compound, on FGFR1, the “Selectivity FGFR1/FGFR2” value is given as “A (Selectivity of FGFR1/FGFR2 less than 500 but greater than or equal to 300)”.
Regarding `C=C(F)C(=O)Nc1ccc(-c2[nH]c3c(C#N)cnc(N)c3c2-c2ccc(C(=O)NC3CC3)c(OC)c2)cc1` [Compound 235, 4-(4-amino-7-cyano-2-(4-(2-fluoroacrylamido)phe-nyl)-1H-pyrrolo[3,2-c]pyridin-3-yl)-N-cyclopropyl-2-methoxybenzamide], the IC50 was at most 10 nM with SNU16 cells and below 5 nM on FGFR2. In addition, the “Selectivity FGFR3/FGFR2” value at FGFR3 was “A+ (Selectivity of FGFR3/FGFR2 greater or equal to 150)”. This compound also displayed a clearance in series [1] (Sprague-Dawley, IV 3 mg/kg) of 5.4 mL/min/kg. Moreover, the AUC(0-inf) in series [1] (setting [2]) was 2070 ng·h/mL. Moreover, the half-life in series [1] (setting [2]) was 78 min. The Cmax in series [1] (setting [3]) came out at 442 ng/mL. Also, the “Selectivity FGFR1/FGFR2” value at FGFR1 is listed as “A+ (Selectivity of FGFR1/FGFR2 greater or equal to 500)”.
As for `C=C(F)C(=O)Nc1ccc(-c2[nH]c3c(C#N)cnc(N)c3c2-c2ccc(C(=O)NCC(F)(F)F)c(OC)c2)cc1` [Compound 302], in series [1] (Sprague-Dawley, IV 3 mg/kg), the clearance amounted to 3.4 mL/min/kg. Also, in series [1] (setting [2]), the AUC(0-inf) was 1510 ng·h/mL and the half-life is 162 min. The Cmax in series [1] (setting [3]) is 615 ng/mL.
Turning to `C=C(F)C(=O)Nc1ccc(-c2nn3ncnc(N)c3c2-c2ccc(C(=O)NCC3(C(F)(F)F)CC3)c(OC)c2)cc1` [Compound 309], the IC50 in the series on SNU16 cells is at most 10 nM. Moreover, on FGFR3, the “Selectivity FGFR3/FGFR2” value was “A+ (Selectivity of FGFR3/FGFR2 greater or equal to 150)”. In series [1] (Sprague-Dawley, IV 3 mg/kg), this compound showed a clearance of 11 mL/min/kg. In series [1] (setting [2]), this compound gave an AUC(0-inf) of 3100 ng·h/mL and a half-life of 156 min. In addition, in series [1] (setting [3]), the Cmax was found to be 957 ng/mL. Further, the IC50 on FGFR2 is 5 to 10 nM. For the same compound, the “Selectivity FGFR1/FGFR2” value on FGFR1 is reported as “A+ (Selectivity of FGFR1/FGFR2 greater or equal to 500)”.
As for `C=C(F)C(=O)Nc1ccc(-c2nn3ncnc(N)c3c2-c2ccc(C(=O)NC3(C(F)(F)F)CC3)c(OC)c2)cc1` [Compound 308], the values for the IC50 with SNU16 cells and on FGFR2 were at most 10 nM and above 10 nM, respectively. Further, at FGFR3, the “Selectivity FGFR3/FGFR2” value is “A (Selectivity of FGFR3/FGFR2 less than 150 but greater than or equal to 100)”. Besides, the clearance in series [1] (Sprague-Dawley, IV 3 mg/kg) was determined as 17 mL/min/kg. The same compound displayed an AUC(0-inf) in series [1] (setting [2]) of 3760 ng·h/mL. This compound also showed a half-life in series [1] (setting [2]) of 144 min. In series [1] (setting [3]), the Cmax worked out at 1180 ng/mL. Also, the “Selectivity FGFR1/FGFR2” value at FGFR1 is reported as “C (Selectivity of FGFR1/FGFR2 less than 200 but greater than or equal to 100)”.
For the compound `C=C(F)C(=O)Nc1ccc(-c2nn3ncnc(N)c3c2-c2ccc(C(=O)NC3CC(F)(F)C3)c(OC)c2)cc1` [Compound 99], the clearance in series [1] (Sprague-Dawley, IV 3 mg/kg) is 18 mL/min/kg. Also, in series [1] (setting [2]), the AUC(0-inf) stood at 3080 ng·h/mL and the half-life was 84 min. For the same compound, in series [1] (setting [3]), the Cmax was determined as 2360 ng/mL.
Regarding `C=C(F)C(=O)Nc1ccc(-c2nn3ncnc(N)c3c2-c2ccc(C(=O)NC3CC3(F)F)c(OC)c2)cc1` (centres unmarked) [Compound 193, 4-(4-amino-6-(4-(2-fluoroacrylamido)phe-nyl)pyrazolo[5,1-f][1,2,4]triazin-5-yl)-N-(2,2-difluorocyclopropyl)-2-methoxybenzamide], the IC50 with SNU16 cells was at most 10 nM; on FGFR2, 5 to 10 nM. The “Selectivity FGFR3/FGFR2” value on FGFR3 is given as “A+ (Selectivity of FGFR3/FGFR2 greater or equal to 150)”. The same compound yielded a clearance in series [1] (Sprague-Dawley, IV 3 mg/kg) of 8.4 mL/min/kg. Besides, in series [1] (setting [2]), the AUC(0-inf) was 4570 ng·h/mL. The half-life in series [1] (setting [2]) is 216 min. For the same compound, the Cmax in series [1] (setting [3]) is 1390 ng/mL. The “Selectivity FGFR1/FGFR2” value at FGFR1 was “A+ (Selectivity of FGFR1/FGFR2 greater or equal to 500)”.
Turning to `C=C(F)C(=O)Nc1ccc(-c2c(-c3ccc(C(=O)NCC(F)(F)F)c(OC)c3)c3c(N)ncc(C#N)c3n2C)cc1` [Compound 96, 4-(4-amino-7-cyano-2-(4-(2-fluoroacrylamido)phenyl)-1-methyl-1H-pyrrolo[3,2-c]pyridine-3-yl)-2-methoxy-N-(2,2,2-trifluoroethyl)benzamide], the IC50 in the series with SNU16 cells was at most 10 nM. Further, the “Selectivity FGFR3/FGFR2” value at FGFR3 is recorded as “A+ (Selectivity of FGFR3/FGFR2 greater or equal to 150)”. The clearance in series [1] (Sprague-Dawley, IV 3 mg/kg) was determined as 3.1 mL/min/kg. In series [1] (setting [2]), this compound showed an AUC(0-inf) of 2700 ng·h/mL and a half-life of 360 min. Also, the Cmax in series [1] (setting [3]) came out at 621 ng/mL. Besides, at FGFR2, the IC50 is below 5 nM. Also, the “Selectivity FGFR1/FGFR2” value at FGFR1 is “A+ (Selectivity of FGFR1/FGFR2 greater or equal to 500)”.
The compound `C=C(C)C(=O)Nc1ccc(-c2c(-c3ccc(Oc4nccc(C)n4)c(F)c3)c3c(N)ncnc3n2C)cc1` [Compound 0, N-(4-(4-amino-5-(3-fluoro-4-((4-methylpyrimidin-2-yl)oxy)phenyl)-7-methyl-7H-pyrrolo[2,3-d]pyrimidin-6-yl)phenyl)methacrylamide, reference compound] displayed an IC50 in the series with SNU16 cells of at most 10 nM. In series [1] (Sprague-Dawley, IV 3 mg/kg), this compound returned a clearance of 49 mL/min/kg. In series [1] (setting [2]), the AUC(0-inf) was 614 ng·h/mL and the half-life was 90 min. Besides, the Cmax in series [1] (setting [3]) turned out to be 244 ng/mL.
`C=C(F)C(=O)Nc1ccc(-c2nn3ncnc(N)c3c2-c2ccc(C(=O)NC34CC(C3)C4)c(OC)c2)cc1` [Compound 270, 4-(4-amino-6-(4-(2-fluoroacrylamido)phe-nyl)pyrazolo[5,1-f][1,2,4]triazin-5-yl)-N-(bicyclo[1.1.1]pentan-1-yl)-2-methoxybenzamide] showed a Cl in series [1] (IV 3 mg/kg) of 18 mL/min/kg. Besides, in series [1] (setting [4]), the “AUC0-∞” value was determined as 3384 ng·h/mL, the Cmax is 978 ng/mL and the T1/2 is 2 h.
`C=C(F)C(=O)Nc1ccc(-c2nn3ncnc(N)c3c2-c2ccc(C(=O)NCCC(F)(F)F)c(OC)c2)cc1` [Compound 310] came in with a clearance in series [1] (Sprague-Dawley, IV 3 mg/kg) of 16 mL/min/kg. Also, in series [1] (setting [2]), the AUC(0-inf) came out at 2970 ng·h/mL and the half-life is 66 min. Further, the Cmax in series [1] (setting [3]) is 1190 ng/mL.
`C=C(F)C(=O)Nc1ccc(-c2nn3ncnc(N)c3c2-c2ccc(C(=O)NC34CC(F)(C3)C4)c(OC)c2)cc1` [Compound 330] yielded an IC50 in the series with SNU16 cells of at most 10 nM. Besides, the “Selectivity FGFR3/FGFR2” value on FGFR3 is listed as “A+ (Selectivity of FGFR3/FGFR2 greater or equal to 150)”. Moreover, in series [1] (Sprague-Dawley, IV 3 mg/kg), the clearance turned out to be 6.1 mL/min/kg. Besides, in series [1] (setting [2]), the AUC(0-inf) was determined as 1820 ng·h/mL and the half-life was 144 min. Besides, the Cmax in series [1] (setting [3]) came out at 509 ng/mL. Moreover, the IC50 on FGFR2 is above 10 nM. Besides, the “Selectivity FGFR1/FGFR2” value at FGFR1 is listed as “A+ (Selectivity of FGFR1/FGFR2 greater or equal to 500)”.
In the series on SNU16 cells, `C=C(F)C(=O)Nc1ccc(-c2nn3ncnc(N)c3c2-c2ccc(C(=O)NC3CC(F)C3)c(OC)c2)cc1` (centres unmarked) [Compound 185, 4-(4-amino-6-(4-(2-fluoroacrylamido)phe-nyl)pyrazolo[5,1-f][1,2,4]triazin-5-yl)-N-(3-fluorocyclobutyl)-2-methoxybenzamide] had an IC50 of at most 10 nM. Besides, the “Selectivity FGFR3/FGFR2” value at FGFR3 is given as “A+ (Selectivity of FGFR3/FGFR2 greater or equal to 150)”. In series [1] (Sprague-Dawley, IV 3 mg/kg), this compound returned a clearance of 26 mL/min/kg. In series [1] (setting [2]), this compound gave an AUC(0-inf) of 1550 ng·h/mL and a half-life of 180 min. The Cmax in series [1] (setting [3]) was 507 ng/mL. The IC50 on FGFR2 was above 10 nM. Besides, the “Selectivity FGFR1/FGFR2” value at FGFR1 is given as “A+ (Selectivity of FGFR1/FGFR2 greater or equal to 500)”.
The compound `C=C(F)C(=O)Nc1ccc(-c2nn3ncnc(N)c3c2-c2ccc(C(=O)NCC(F)(F)F)c(OC)c2)cc1` [Compound 71, 4-(4-amino-6-(4-(2-fluoroacrylamido)phenyl)pyrazolo[5,1-f][1,2,4]triazin-5-yl)-2-methoxy-N-(2,2,2-trifluoroethyl)benzamide] gave a clearance in series [1] (Sprague-Dawley, IV 3 mg/kg) of 18 mL/min/kg. Besides, in series [1] (setting [2]), the AUC(0-inf) stood at 3230 ng·h/mL and the half-life is 108 min. In series [1] (setting [3]), the Cmax worked out at 1300 ng/mL.
